We go through 2 molecules from US6441162B2, “Crystalline substance of cefditoren pivoxyl and the production of the same” (Meiji Seika Kaisha, Ltd., priority 1996, dated 2002).

The data set in a line: Thermal stability on storage in sealed dry containers, residual Cefditoren pivoxyl by liquid chromatography. It counts as physicochemical. The note with it: sealed dry container; for Residual quantity (%) of Cefditoren pivoxyl upon storage at 60° C., Initial content (at 0 day): initial content assumed to be 100%. The source says: In order to test the thermal stability on storage of the new crystalline substance of Cefditoren pivoxyl according to this invention, in comparison with the known, amorphous form of Cefditoren pivoxyl, there were employed a sample of the crystalline Cefditoren pivoxyl which was produced in Example 1 given hereinafter, as well as a sample of the amorphous Cefditoren pivoxyl which was produced by admixing a solution of amorphous Cefditoren pivoxyl in methanol with an aqueous iso-propanol to precipitate an amorphous powder of this compound and separating and drying this powder under a reduced pressure. These samples were separately placed in sealed dry containers and were stored for 1 month, for 2 months and for 4 months at 60° C. and at 40° C., respectively. After these storages, the samples were analysed by a liquid chromatographic method and percentages of the residual quantity of Cefditoren pivoxyl remaining in the stored samples were evaluated from the area under the absorption peak which was shown in the chromatogramms obtained. It is assumed that the initial content of Cefditoren pivoxyl in the test samples was 100% at the starting of the storages.

Take `CO/N=C(\C(=O)NC1C(=O)N2C(C(=O)OCOC(=O)C(C)(C)C)=C(/C=C\c3scnc3C)CS[C@H]12)c1csc(N)n1` (some centres unmarked) [Crystalline substance, 7-[(Z)-2-(2-aminothiazol-4-yl)-2-methoxyiminoacetamido]-3-[(Z)-2-(4-methylthiazol-5-yl)ethenyl]-3-cephem-4-carboxylic acid pivaloyloxymethyl ester]: the “Residual quantity (%) of Cefditoren pivoxyl upon storage at 60° C., After 1 month” value came to 99%; the “Residual quantity (%) of Cefditoren pivoxyl upon storage at 60° C., After 2 months” value (“Residual quantity (%) … After 2 months” below) is reported as 99%; the “Residual quantity (%) of Cefditoren pivoxyl upon storage at 60° C., Initial content (at 0 day)” value was 100%. Further, for the setting “40° C., 4 months”, the “Residual quantity of Cefditoren pivoxyl after the 4-month storage at 40° C.” value was 99%. The “Residual quantity (%) … After 2 months” value (listed as crystalline substance of Cefditoren pivoxyl) is 99%.

`CO/N=C(\C(=O)NC1C(=O)N2C(C(=O)OCOC(=O)C(C)(C)C)=C(/C=C\c3scnc3C)CS[C@H]12)c1csc(N)n1` (some centres unmarked) [Amorphous substance, 7-[(Z)-2-(2-aminothiazol-4-yl)-2-methoxyiminoacetamido]-3-[(Z)-2-(4-methylthiazol-5-yl)ethenyl]-3-cephem-4-carboxylic acid pivaloyloxymethyl ester, reference compound]: the “Residual quantity (%) of Cefditoren pivoxyl upon storage at 60° C., After 1 month” value is 93%; the “Residual quantity (%) … After 2 months” value is 88%; the “Residual quantity (%) of Cefditoren pivoxyl upon storage at 60° C., Initial content (at 0 day)” value was found to be 100%.
